Laboratory results from patent US5708033A, “Amide derivatives and their therapeutic use” (Glaxo Wellcome Inc., priority 1994, dated 1998).
Where two headings read alike, the source gives them in different places.

Experiments:
Type in all cases: in vivo, rat (Lewis male)
[1] = test system: rat hind limb (trypsin-induced hyperalgesia); assay: modification of the trypsin-induced rat hind limb hyperalgesic assay (mild analgesia); details: po, 1 h, p.o. gavage to fasted rats 0.5 hours prior to subplantar 250 μg trypsin, evaluated one hour later, 4 seconds maximum latency, read-out: p.o. ED50 (mild analgesia, 50% inhibition of latency response)
Protocol: The rats used in these studies were Lewis male, weighing 160-180 g. and assigned to groups consisting of 5-6 animals. Test compounds were given to fasted rats by oral gavage 0.5 hours prior to the subplantar injection of 250 μg trypsin in one hind limb. One hour later the rats were evaluated for hyperalgesia using a F-shaped mechanical force clamp on the injected hind limb metatarsal area. Latency (seconds) to the algesic response (vocalisation or flight) was determined, with 4 seconds being the maximum latency allowed. ED50 values were estimated by linear regression analysis and represent the dose at which a given drug extended the latency response to produce 50% inhibition using the formula:
(4 sec.-Control Latency)-(4 sec.-Test Latency)/4 sec.--Control

[2] = test system: rat pleura (carrageenan-induced cell accumulation and edema formation); assay: modification of the standard carrageenan pleurisy assay (anti-inflammatory activity); details: po, p.o. gavage to fasted rats 0.5 hr prior to intrapleural 50 μg carrageenan, exudate after 4 hr
Protocol: The rats used in these experiments were Lewis males, weighing 160-180 g, assigned to groups consisting of 5 animals. Test compounds were given to fasted rats by oral gavage 0.5 hr prior to intrapleural injection of 50 μg carrageenan. After 4 hr, the pleural exudate was collected and the edema volume and cell number were determined. ED50 values were estimated by linear regression analysis, and represent the doses at which a given drug produced 50% inhibition of carrageenan-induced cell accumulation and edema formation within the rat pleura.

[3] = test system: phalanges of one hind limb (algesic response); assay: phalanges algesic assay (strong analgesia); details: p.o. gavage to fasted rats, mechanical force clamp one hour later, 3 seconds maximum; for ED50: Rattus norvegicus, po, 1 h, read-out: p.o. ED50 (strong analgesia, 50% inhibition of latency response)
Protocol: The rats used in these studies were Lewis male weighing 160-180 g and assigned to groups of 5-6 animals. The phalanges algesic assay is an algesic test (no hyperalgesia). Test compounds were given to fasted rats by oral gavage. One hour later an F-shaped mechanical force clamp was applied to the phalanges of one hind limb which initiated an algesic response (vocalisation or flight). Latency (seconds) to the algesic response was determined with 3 seconds maximum allowed time. ED50 values were estimated by linear regression analysis and represent the dose at which a given compound extended the latency response to produce 50% inhibition using the formula:
(3 sec.-Control Latency)-(3 sec.-Test Latency)/3 sec.-Control

[4] = read-out: p.o. ED50, Cells (50% inhibition of carrageenan-induced cell accumulation)
[5] = read-out: p.o. ED50, Edema (50% inhibition of edema formation)

NC(=O)/C=C1\CCc2c(F)cc(Cl)cc21 [Example 6, (E)-2-(6-Chloro-4-Fluoro-1-indanylidene)acetamide]
ED50 [1]: > 10 mg/kg | ED50 [2, 4]: > 25 mg/kg | ED50 [2, 5]: > 25 mg/kg | ED50 [3]: > 45 mg/kg

NC(=O)/C=C1\CCc2c(Br)cc(F)cc21 [Example 7, (E)-2-(4-Bromo-6-Fluoro-1-indanylidene)acetamide]
ED50 [2, 4]: > 20 mg/kg | ED50 [2, 5]: > 20 mg/kg | ED50 [3]: > 45 mg/kg

NC(=O)/C=C1\CCc2c(Cl)cc(Cl)cc21 [Example 3, (E)-2-(4,6-Dichloro-1-indanylidene)acetamide]
ED50 [1]: 4 mg/kg | ED50 [2, 4]: 25 mg/kg | ED50 [2, 5]: 20 mg/kg | ED50 [3]: > 45 mg/kg

NC(=O)/C=C1\CCc2c(Cl)cc(F)cc21 [Example 2, (E)-2-(4-Chloro-6-fluoro-1-indanylidene)acetamide]
ED50 [1]: 4 mg/kg | ED50 [2, 4]: 11 mg/kg | ED50 [2, 5]: 11 mg/kg | ED50 [3]: 30 mg/kg

CNC(=O)/C=C1\CCc2c(Cl)cc(F)cc21 [Example 1, (E)-2-(4-Chloro-6-fluoro-1-indanylidene)-N-Methylacetamide]
ED50 [1]: 2 mg/kg | ED50 [2, 4]: 8 mg/kg | ED50 [2, 5]: 5 mg/kg | ED50 [3]: 60 mg/kg

Cc1cc(Cl)c2c(c1)/C(=C/C(N)=O)CC2 [Example 8, (E)-2-(4-Chloro-6-methyl-1-indanylidene)acetamide]
ED50 [2, 4]: > 25 mg/kg | ED50 [2, 5]: > 25 mg/kg | p.o. ED50 (strong analgesia, 50% inhibition of latency response) [3]: Inactive at 45
